In publication PMC7390918, “NVP-CGM097, an HDM2 Inhibitor, Antagonizes ATP-Binding Cassette Subfamily B Member 1-Mediated Drug Resistance” (Frontiers in Oncology, 2020):

Assays:
ABCB1 [1] = molecular target: T1, ABCB1 (Homo sapiens, UniProt P08183); test: biochemical
ABCB1 [2] = molecular target: T1, ABCB1

T1 sequence (P08183 whole entry): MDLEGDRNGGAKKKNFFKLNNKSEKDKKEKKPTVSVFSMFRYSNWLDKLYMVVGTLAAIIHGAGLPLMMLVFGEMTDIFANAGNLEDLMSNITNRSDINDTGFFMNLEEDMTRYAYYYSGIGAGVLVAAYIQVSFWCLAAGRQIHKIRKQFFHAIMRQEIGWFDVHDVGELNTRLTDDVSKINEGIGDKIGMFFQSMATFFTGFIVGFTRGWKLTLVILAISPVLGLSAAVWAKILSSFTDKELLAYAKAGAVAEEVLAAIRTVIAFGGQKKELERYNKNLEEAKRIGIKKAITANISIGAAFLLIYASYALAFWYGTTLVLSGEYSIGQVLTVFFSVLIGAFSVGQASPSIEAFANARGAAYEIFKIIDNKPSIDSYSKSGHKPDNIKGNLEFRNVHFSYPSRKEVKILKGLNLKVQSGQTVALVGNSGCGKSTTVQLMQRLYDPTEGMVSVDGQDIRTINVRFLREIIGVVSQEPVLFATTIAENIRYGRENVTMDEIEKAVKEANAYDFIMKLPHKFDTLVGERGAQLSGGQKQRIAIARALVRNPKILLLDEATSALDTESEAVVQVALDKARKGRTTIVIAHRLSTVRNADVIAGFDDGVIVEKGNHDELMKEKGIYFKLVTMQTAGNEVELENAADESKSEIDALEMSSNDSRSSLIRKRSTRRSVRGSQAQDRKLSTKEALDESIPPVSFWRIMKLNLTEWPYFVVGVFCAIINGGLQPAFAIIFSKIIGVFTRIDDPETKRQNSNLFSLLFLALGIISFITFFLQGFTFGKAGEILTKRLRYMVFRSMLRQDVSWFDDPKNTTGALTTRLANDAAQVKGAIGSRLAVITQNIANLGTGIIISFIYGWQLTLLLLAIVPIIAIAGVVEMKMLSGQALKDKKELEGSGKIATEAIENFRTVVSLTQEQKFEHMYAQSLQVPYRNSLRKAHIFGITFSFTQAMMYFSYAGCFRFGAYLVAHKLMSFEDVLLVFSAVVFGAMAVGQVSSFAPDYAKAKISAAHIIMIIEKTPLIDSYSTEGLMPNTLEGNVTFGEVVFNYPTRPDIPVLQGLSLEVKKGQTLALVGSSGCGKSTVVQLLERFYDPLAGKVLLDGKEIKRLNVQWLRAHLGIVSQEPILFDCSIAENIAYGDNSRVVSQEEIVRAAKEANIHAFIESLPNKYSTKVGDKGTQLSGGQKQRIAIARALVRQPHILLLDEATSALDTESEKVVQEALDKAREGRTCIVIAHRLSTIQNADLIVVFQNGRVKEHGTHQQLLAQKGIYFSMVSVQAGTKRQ

SMILES | EC50 (ABCB1 [1]) [nM] | [3H]-paclitaxel accumulation and efflux in KB-C2 versus parental KB-3-1 cells (ABCB1 [2])
COc1cc2c(cc1OC(C)C)[C@H](c1ccc(Cl)cc1)N(c1ccc(N(C)C[C@H]3CC[C@H](N4CCN(C)C(=O)C4)CC3)cc1)C(=O)C2 [NVP-CGM097] | 450 | 
CC(=O)O[C@H]1C(=O)[C@@]2(C)[C@H]([C@H](OC(=O)c3ccccc3)[C@]3(O)C[C@H](OC(=O)[C@H](O)[C@@H](NC(=O)c4ccccc4)c4ccccc4)C(C)=C1C3(C)C)[C@]1(OC(C)=O)CO[C@@H]1C[C@@H]2O [paclitaxel] |  | NVP-CGM097 can block the efflux activity of ABCB1-overexpressing cells, therefore, increasing intracellular paclitaxel accumulation
